# pKd: −log10 of the molar value. Calls of active or inactive are those of the source. The rule behind the calls is not given here.
# Key:
# Mus musculus [1] = species on record: Mus musculus; experiment: Effect on bile acid homeostasis in HCD-fed C57BL/6 mouse assessed as change in Ppar-alpha mRNA expression by RT-qPCR analysis; format: functional
# [2] = Induction of Cholesterol accumulation in human HepG2 cells assessed as fold increase in LDL-cholesterol level at 5 uM after 48 hrs; format: functional
# Mus musculus [3] = experiment: Induction of histopathological changes in HCD-fed C57BL/6 mouse assessed as striking subcapsular foci at 0.8 mg/kg, ip; format: organism-based; conditions: in vivo
# [4] = Induction of LDLR mRNA level in human HepG2 cells assessed as fold increase in LDLR expression at 5 uM by RT-qPCR analysis; format: functional
# [5] = Hepatotoxicity in renal carcinoma xenografted C57BL/6 mouse assessed as appearance of pyknotic nucleus at 0.8 mg/kg, ip by histological analysis; format: toxicity, organism-based; conditions: in vivo
# [6] = Hepatotoxicity in renal carcinoma xenografted C57BL/6 mouse assessed as effect on body weight at 0.8 mg/kg, ip; format: toxicity, organism-based; conditions: in vivo
# [7] = Hepatotoxicity in renal carcinoma xenografted C57BL/6 mouse assessed as white discoloration of liver at 0.8 mg/kg, ip; format: toxicity, organism-based; conditions: in vivo
# [8] = target: T1, Oxysterols receptor LXR-alpha (Homo sapiens, UniProt Q13133); experiment: Binding affinity to full-length human LXRalpha by surface plasmon resonance assay
# T1 sequence (Q13133 whole entry): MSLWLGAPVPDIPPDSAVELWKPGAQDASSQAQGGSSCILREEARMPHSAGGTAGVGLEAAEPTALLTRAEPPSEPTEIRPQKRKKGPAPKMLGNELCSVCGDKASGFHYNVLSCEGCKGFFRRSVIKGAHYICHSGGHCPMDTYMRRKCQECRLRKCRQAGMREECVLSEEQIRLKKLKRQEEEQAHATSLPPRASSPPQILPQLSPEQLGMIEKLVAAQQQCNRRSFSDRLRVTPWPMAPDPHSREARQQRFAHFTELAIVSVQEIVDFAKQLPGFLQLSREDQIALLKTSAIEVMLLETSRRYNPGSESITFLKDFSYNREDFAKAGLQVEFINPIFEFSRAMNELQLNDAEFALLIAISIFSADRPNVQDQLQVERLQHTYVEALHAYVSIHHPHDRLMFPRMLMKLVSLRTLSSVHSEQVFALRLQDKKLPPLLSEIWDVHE
# [9] = Effect on bile acid homeostasis in HCD-fed C57BL/6 mouse assessed as reduction in Ntcp-mRNA expression by RT-qPCR analysis; format: functional; set-up: scale not given: the % may be the effect or the level left
# [10] = Effect on bile acid homeostasis in HCD-fed C57BL/6 mouse assessed as down regulation of Ost-alpha mRNA expression by RT-qPCR analysis; format: functional
# [11] = Hepatotoxicity in renal carcinoma xenografted C57BL/6 mouse assessed as inflammatory infiltration at 0.8 mg/kg, ip by histological analysis; format: toxicity, organism-based; conditions: in vivo
# HepG2 [12] = experiment: Induction of apoptosis in human HepG2 cells assessed as necrotic cells at 5 uM measured after 48 hrs by Annexin-V-FITC/propidium iodide staining based flow cytometry (reference value: 0 %); format: functional
# Mus musculus [13] = experiment: Induction of histopathological changes in HCD-fed C57BL/6 mouse assessed as white discoloration of liver at 0.8 mg/kg, ip; format: organism-based; conditions: in vivo
# [14] = Down regulation of FXR mRNA level in human HepG2 cells at 5 uM by RT-qPCR analysis; format: functional
# [15] = Inhibition of FXR protein expression level in HCD-fed C57BL/6 mouse at 0.8 mg/kg, ip; format: functional; conditions: C57BL/6, ip
# [16] = Down regulation of SHP mRNA level in human HepG2 cells at 1 uM by RT-qPCR analysis; format: functional
# HepG2 [17] = experiment: Induction of mitochondrial dysfunction in human HepG2 cells assessed as decrease in TNFalpha level at 1 uM after 48 hrs; format: cell-based; set-up: scale not given: the % may be the effect or the level left; conditions: hepg2, 48 h
# HepG2 [18] = experiment: Induction of apoptosis in human HepG2 cells assessed as early apoptotic cells at 5 uM measured after 48 hrs by Annexin-V-FITC/propidium iodide staining based flow cytometry (reference value: 15.5 %); format: functional
# [19] = Toxicity in mouse assessed as death at 10 mg/kg, po after 45 mins; format: organism-based; conditions: in vivo, 0.75 h
# Mus musculus [20] = species on record: Mus musculus; experiment: Effect on bile acid homeostasis in HCD-fed C57BL/6 mouse assessed as change in Mrp2 mRNA expression by RT-qPCR analysis; format: functional
# Mus musculus [21] = experiment: Induction of HCD-induced cholestasis in C57BL/6 mouse assessed as fold increase in plasma LDL-cholesterol level at 0.8 mg/kg, ip; format: functional
# [22] = Toxicity in HCD-fed C57BL/6 mouse assessed as body weight loss at 0.8 mg/kg, ip measured on day 28; format: organism-based; conditions: in vivo
# [23] = Down regulation of FXR mRNA level in human HepG2 cells at 1 uM by RT-qPCR analysis; format: functional
# Mus musculus [24] = species on record: Mus musculus; experiment: Effect on bile acid homeostasis in Chow diet-fed C57BL/6 mouse assessed as change in Car protein expression; format: functional
# [25] = Effect on bile acid homeostasis in HCD-fed C57BL/6 mouse assessed as down regulation of Oatp1 mRNA expression by RT-qPCR analysis; format: functional
# Mus musculus [26] = experiment: Induction of HCD-induced cholestasis in C57BL/6 mouse assessed as fold increase in plasma total bile acid level at 0.8 mg/kg, ip; format: functional
# HepG2 [27] = experiment: Down regulation of ABCB1 protein level in human HepG2 cells at 1 to 5 uM by Western blot analysis; format: functional, cell-based; conditions: dose 1-5 µM
# [28] = Effect on bile acid homeostasis in HCD-fed C57BL/6 mouse assessed as fold increase in Mrp3 mRNA expression by RT-qPCR analysis; format: functional
# [29] = Induction of SHP mRNA level in human HepG2 cells assessed as fold increase in SHP expression at 1 uM by RT-qPCR analysis; format: functional
# [30] = Drug metabolism in mouse liver assessed as PA formation at 10 mg/kg, po after 180 mins by LC-MS/MS analysis; format: ADME, organism-based; conditions: in vivo, 3 h
# [31] = Induction of FXR mRNA level in human HepG2 cells assessed as fold increase in FXR expression at 1 uM by RT-qPCR analysis; format: functional
# [32] = Induction of LDLR protein expression level in HCD-fed C57BL/6 mouse at 0.8 mg/kg, ip; format: functional
# HepG2 [33] = experiment: Down regulation of LXRalpha protein level in human HepG2 cells at 1 to 5 uM by Western blot analysis; format: functional, cell-based; conditions: dose 1-5 µM
# [34] = Drug metabolism in mouse liver assessed as PA formation at 10 mg/kg, po after 30 mins by LC-MS/MS analysis; format: ADME, organism-based; conditions: in vivo, 0.5 h
# HepG2 [35] = experiment: Induction of mitochondrial dysfunction in human HepG2 cells assessed as decrease in ILbeta level at 5 to 10 uM after 48 hrs; format: cell-based; set-up: scale not given: the % may be the effect or the level left; conditions: hepg2, 48 h, dose 5-10 µM
# [36] = Induction of LDLR protein expression level in chow diet fed C57BL/6 mouse at 0.8 mg/kg, ip; format: functional
# HepG2 [37] = experiment: Effect on LXRalpha mRNA level in human HepG2 cells at 1 to 5 uM by RT-qPCR analysis; format: functional, cell-based; conditions: dose 1-5 µM
Compound,Activity (Mus musculus [1]),fold change (FC) [2],Activity (Mus musculus [3]),fold change (FC) [4],Activity [5],Activity [6],Activity [7],Activity [9] [%],Activity [10] [%],Activity [11],Activity (HepG2 [12]) [%],Activity (Mus musculus [13]),inhibition in vivo at 0.8 mg/kg [15] [%],Activity (HepG2 [18]) [%],Activity [19],Activity (Mus musculus [20]),fold change (FC) (Mus musculus [21]),Activity [22],Activity (Mus musculus [24]),Activity [25] [%],also measured
C/C=C(\C)[C@H](O)[C@H](C)/C=C(C)/C=C/C/C(C)=C/Cc1nc(OC)c(OC)c(O)c1C [PIERICIDIN A],inactive,2.7,Toxic,3.1,Toxic,Non-Toxic,Non-Toxic,60,10,Toxic,0,Toxic,79,24.6,Non-Toxic,inactive,2.6,Toxic,inactive,66,pKd [8]: 5.49; Activity [14]: 34%; Activity [16]: 55%; Activity (HepG2 [17]): 54%; Activity [23]: 56%; fold change (FC) (Mus musculus [26]): 2.8
C/C=C(\C)[C@H](O[C@@H]1O[C@H](CO)[C@@H](O)[C@H](O)[C@H]1O)[C@H](C)/C=C(C)/C=C/C/C(C)=C/Cc1nc(OC)c(OC)c(O)c1C,inactive,3.1,Toxic,2.2,Toxic,Non-Toxic,Non-Toxic,42,44,Toxic,0,Toxic,31,35.7,Toxic,inactive,2.3,Toxic,inactive,65,Activity (HepG2 [27]): Active; fold change (FC) [28]: 1.65; fold change (FC) [29]: 3.6; Drug metabolism [30]: Metabolite_Detected; fold change (FC) [31]: 3.6; fold change (FC) [32]: 1.6; Activity (HepG2 [33]): Active; Drug metabolism [34]: 14.87 ng/mL; Activity (HepG2 [35]): 68%; fold change (FC) [36]: 1.5; Activity (HepG2 [37]): inactive; fold change (FC) (Mus musculus [26]): 3.5
